From patent US20150322051A1, “Macrocyclic picolinamides as fungicides” (Dow AgroSciences LLC, priority 2014, published 2015)
Read-outs that look alike come from different tables or passages of the source.

Legend:
[1] = test system: Puccinia triticina; synonym: Puccinia recondita f. sp. tritici (PUCCRT); assay: Wheat brown rust (PUCCRT) whole-plant fungicidal test; type: in vivo; settings: topical; for pest or weed control at 121.5 g/ha: low volume (track spray) application, 121.5 g/H; for pest or weed control at 100 ppm: high volume application
[2] = test system: Mycosphaerella graminicola; anamorph: Septoria tritici (SEPTTR); assay: Leaf blotch of wheat (SEPTTR) whole-plant fungicidal test; type: in vivo; settings: Zymoseptoria tritici, topical; for pest or weed control at 121.5 g/ha: low volume (track spray) application, 121.5 g/H; for pest or weed control at 100 ppm: high volume application
[3] = 24 h, 1 Day Protectant, read-out: Low Volume activity at 121.5 g/H PUCCRT 1DP (% disease control rating)
[4] = 72 h, 3 Day Curative, read-out: Low Volume activity at 121.5 g/H PUCCRT 3DC (% disease control rating)
[5] = 24 h, 1 Day Protectant, read-out: Low Volume activity at 121.5 g/H SEPTTR 1DP (% disease control rating)
[6] = 72 h, 3 Day Curative, read-out: Low Volume activity at 121.5 g/H SEPTTR 3DC (% disease control rating)
[7] = 24 h, 1 Day Protectant, read-out: High Volume activity at 100 ppm PUCCRT 1DP (% disease control rating)
[8] = 72 h, 3 Day Curative, read-out: High Volume activity at 100 ppm PUCCRT 3DC (% disease control rating)
[9] = 24 h, 1 Day Protectant, read-out: High Volume activity at 100 ppm SEPTTR 1DP (% disease control rating)
[10] = 72 h, 3 Day Curative, read-out: High Volume activity at 100 ppm SEPTTR 3DC (% disease control rating)

| melting point | Structure (SMILES) | pest or weed control at 121.5 g/ha [1, 3] | pest or weed control at 121.5 g/ha [1, 4] | pest or weed control at 121.5 g/ha [2, 5] | pest or weed control at 121.5 g/ha [2, 6] | pest or weed control at 100 ppm [1, 7] | pest or weed control at 100 ppm [1, 8] | pest or weed control at 100 ppm [2, 9] | pest or weed control at 100 ppm [2, 10] |
| --- | --- | --- | --- | --- | --- | --- | --- | --- | --- |
| 221 to 224 °C | CC(C)C[C@@H]1[C@@H](Cc2ccccc2)CCC[C@H](N)C(=O)O[C@H]1C.Cl | – | – | – | – | – | – | – | – |
| 227 to 232 °C | C[C@@H]1OC(=O)[C@@H](N)CCC[C@H](CCCc2ccccc2)[C@H]1Cc1ccc(OC(F)(F)F)cc1.Cl | – | – | – | – | – | – | – | – |
| 215 to 217 °C | C[C@@H]1OC(=O)[C@@H](N)CCC[C@H](Cc2ccc(C(F)(F)F)cc2)[C@H]1Cc1ccc(OC(F)(F)F)cc1.Cl | – | – | – | – | – | – | – | – |
| 196 to 198 °C | C[C@@H]1OC(=O)[C@@H](N)CCC[C@H](Cc2ccccc2)[C@H]1Cc1ccc(OC(F)(F)F)cc1.Cl | – | – | – | – | – | – | – | – |
| 60 to 64 °C | COc1ccnc(C(=O)N[C@H]2CCC[C@H](Cc3ccccc3)[C@@H](CC(C)C)[C@H](C)OC2=O)c1OCOC(C)=O [Compound 14] | > 70% | < 70% | > 70% | > 70% | – | – | – | – |
| 98 to 100 °C | COc1ccnc(C(=O)N[C@H]2CCC[C@H](Cc3ccc(Cl)cc3)[C@@H](Cc3ccccc3)[C@H](C)OC2=O)c1OCOC(C)=O [Compound 19] | > 70% | < 70% | > 70% | > 70% | – | – | – | – |
| 73 to 76 °C | COc1ccnc(C(=O)N[C@H]2CCC[C@H](Cc3ccccc3)[C@@H](CC(C)C)[C@H](C)OC2=O)c1O [Compound 77] | – | – | – | – | – | – | – | – |
| – | COc1ccnc(C(=O)N[C@H]2CCC[C@H](Cc3ccc(Cl)cc3)[C@@H](Cc3ccccc3)[C@H](C)OC2=O)c1O [Compound 79] | – | – | – | – | > 70% | < 70% | > 70% | < 70% |
| – | COc1ccnc(C(=O)N[C@H]2CCC[C@H](Cc3ccc(C(F)(F)F)cc3)[C@@H](CC(C)C)[C@H](C)OC2=O)c1O [Compound 80] | – | – | – | – | > 70% | < 70% | > 70% | < 70% |
| – | COc1ccnc(C(=O)N[C@H]2CCC[C@H](Cc3ccc(C(F)(F)F)cc3)[C@@H](Cc3ccccc3)[C@H](C)OC2=O)c1O [Compound 81] | – | – | – | – | > 70% | < 70% | > 70% | < 70% |
| – | CCC[C@H]1CCC[C@H](NC(=O)c2nccc(OC)c2O)C(=O)O[C@@H](C)[C@@H]1Cc1ccccc1 [Compound 82] | – | – | – | – | > 70% | > 70% | < 70% | > 70% |
| – | COc1ccnc(C(=O)N[C@H]2CCC[C@H](CCC(C)C)[C@@H](CCc3ccccc3)[C@H](C)OC2=O)c1O [Compound 83] | – | – | – | – | > 70% | < 70% | > 70% | < 70% |
| – | COc1ccnc(C(=O)N[C@H]2CCC[C@H](Cc3ccc(Cl)cc3)[C@@H](C3CCCC3)[C@H](C)OC2=O)c1O [Compound 84] | – | – | – | – | > 70% | < 70% | > 70% | > 70% |
| – | COc1ccnc(C(=O)N[C@H]2CCC[C@H](CCCc3ccccc3)[C@@H](CCc3ccccc3)[C@H](C)OC2=O)c1O [Compound 85] | – | – | – | – | > 70% | < 70% | > 70% | < 70% |
| – | COc1ccnc(C(=O)N[C@H]2CCC[C@H](Cc3ccc(C(F)(F)F)cc3)[C@@H](Cc3ccc(F)cc3)[C@H](C)OC2=O)c1O [Compound 86] | – | – | – | – | > 70% | < 70% | < 70% | < 70% |
| – | COc1ccnc(C(=O)N[C@H]2CCC[C@H](CCC(C)C)[C@@H](C3CCCC3)[C@H](C)OC2=O)c1O [Compound 87] | – | – | – | – | > 70% | < 70% | > 70% | < 70% |
| – | COc1ccnc(C(=O)N[C@H]2CCC[C@H](Cc3ccccc3)[C@@H](CCC(C)C)[C@H](C)OC2=O)c1O [Compound 88] | – | – | – | – | > 70% | < 70% | < 70% | > 70% |
| – | COc1ccnc(C(=O)N[C@H]2CCC[C@H](Cc3ccccc3)[C@@H](c3ccccc3)[C@H](C)OC2=O)c1O [Compound 90] | – | – | – | – | > 70% | > 70% | > 70% | > 70% |
| – | CCC[C@H]1CCC[C@H](NC(=O)c2nccc(OC)c2O)C(=O)O[C@@H](C)[C@@H]1c1ccccc1 [Compound 91] | – | – | – | – | > 70% | < 70% | > 70% | > 70% |
| – | COc1ccnc(C(=O)N[C@H]2CCC[C@H](CCCc3ccccc3)[C@@H](CC(C)C)[C@H](C)OC2=O)c1O [Compound 92] | – | – | – | – | > 70% | < 70% | > 70% | < 70% |
| 49 to 53 °C | COc1ccnc(C(=O)N[C@H]2CCC[C@H](CCCc3ccccc3)[C@@H](Cc3ccc(OC(F)(F)F)cc3)[C@H](C)OC2=O)c1O [Compound 93] | – | – | – | – | < 70% | < 70% | < 70% | < 70% |
| – | COc1ccnc(C(=O)N[C@H]2CCC[C@H](CC3CC3)[C@@H](Cc3ccccc3)[C@H](C)OC2=O)c1O [Compound 94] | > 70% | < 70% | > 70% | > 70% | – | – | – | – |
| – | COc1ccnc(C(=O)N[C@H]2CCC[C@H](Cc3ccccc3)[C@@H](Cc3ccc(F)cc3)[C@H](C)OC2=O)c1O [Compound 95] | > 70% | < 70% | > 70% | > 70% | – | – | – | – |
| – | COc1ccnc(C(=O)N[C@H]2CCC[C@H](Cc3ccc(C(F)(F)F)cc3)[C@@H](Cc3ccc(OC(F)(F)F)cc3)[C@H](C)OC2=O)c1O [Compound 96] | – | – | – | – | < 70% | < 70% | < 70% | < 70% |
| – | COc1ccnc(C(=O)N[C@H]2CCC[C@H](Cc3ccccc3)[C@@H](Cc3ccc(OC(F)(F)F)cc3)[C@H](C)OC2=O)c1O [Compound 97] | – | – | – | – | > 70% | < 70% | > 70% | < 70% |
| – | COc1ccnc(C(=O)N[C@H]2CCC[C@H](CCCc3ccccc3)[C@@H](Cc3ccccc3)[C@H](C)OC2=O)c1O [Compound 98] | – | – | – | – | > 70% | < 70% | > 70% | > 70% |
| 65 to 67 °C | C[C@@H]1OC(=O)[C@@H](NC(=O)OC(C)(C)C)CCC[C@H](Cc2ccc(C(F)(F)F)cc2)[C@H]1Cc1ccc(OC(F)(F)F)cc1 [Compound 152] | – | – | – | – | – | – | – | – |
